Assay type in all cases: cell-based
One experiment has as its system Escherichia coli. Description: Minimum Inhibitory Concentration (MIC) test, two fold serial dilutions. On the set-up: unit not given here. To be noted: Minimal Salts Media (M9G). How it is done:
(§1) The spectrum of antimicrobial activity of the antimicrobial agents useful in the present invention were determined in Minimum Inhibitory Concentration (MIC) tests. MICs were determined by two fold serial dilutions of a compound in Minimal Salts Media (M9G), Trypticase Soy Broth (TSB) or Tryticase Soy Broth and anionic surfactant (TSBA). The compounds were tested against Aspergillus niger, Rhodotorula rubra, Escherichia coli and Pseudomonas aeruginosa. Results of the MIC tests are shown below.

The subject of another experiment is Rhodotorula rubra. The description is as above. On the set-up: R. Rubra M9G: unit not given here. The settings on record: for R. Rubra M9G: Minimal Salts Media (M9G). How it is done: as §1
The next experiment relates to Aspergillus niger. Described as above. To be noted: Trypticase Soy Broth (TSB). Here is the method:
as §1

Experiment [1] relates to Aspergillus niger, Rhodotorula rubra, Escherichia coli and Pseudomonas aeruginosa. As to the kind of experiment: MIC tests, overall spectrum of antimicrobial activity. The settings on record: verbal summary of the MIC results of Table 1. How it is done:
as §1

Regarding `Cc1nc(C(F)(F)F)c(C(=O)Nc2c(Cl)cc(OC(F)(F)F)cc2Cl)s1` [Compound 33], in the experiment with Escherichia coli, the “E.Coli M9G” value is listed as 300. Besides, the “R. Rubra M9G” value with Rhodotorula rubra was 300.

For `O=C(Nc1c(Br)cc(OC(F)(F)F)cc1Br)c1sc(C(F)(F)F)nc1C(F)(F)F` [Compound 29], the “E.Coli M9G” value with Escherichia coli was over 300. Moreover, the “R. Rubra M9G” value in the experiment with Rhodotorula rubra is recorded as 300.

In the case of `Cc1nc(C(F)F)c(C(=O)Nc2c(Br)cc(OC(F)(F)F)cc2Br)s1` [Compound 35], the “E.Coli M9G” value in the experiment with Escherichia coli stood at 300. Further, the “R. Rubra M9G” value in the experiment on Rhodotorula rubra turned out to be 300.

Regarding `Cc1nc(C(F)F)c(C(=O)Nc2c(Br)cc(Br)cc2Br)s1` [Compound 34], the “E.Coli M9G” value with Escherichia coli is given as 300. The “R. Rubra M9G” value in the experiment with Rhodotorula rubra was determined as 300.

In the case of `O=C(Nc1c(Br)cc(Br)cc1Br)c1sc(C(F)(F)F)nc1C(F)(F)F` [Compound 26], the “E.Coli M9G” value in the experiment with Escherichia coli is over 300. Also, the “R. Rubra M9G” value with Rhodotorula rubra was 300.

Regarding `O=C(Nc1ccc(F)c(F)c1)c1sc(C(Cl)(Cl)Cl)nc1C(F)(F)F` [Compound 43], the “A. niger TSB” value in the experiment with Aspergillus niger is recorded as over 30. Also, the microbicidal activity result in experiment [1] was “surprisingly effective at controlling microorganisms”. Moreover, the “E.Coli M9G” value with Escherichia coli is recorded as over 300. The “R. Rubra M9G” value in the experiment on Rhodotorula rubra worked out at 30. Moreover, the “R. Rubra TSB” value in the experiment on Rhodotorula rubra (Trypticase Soy Broth (TSB)) is on record as 30.
